Experimental data as given in US20230087439A1, “Nmr-Metabolite-Signature For Identifying Cancer Patients Resistant To Cdk4/6 Inhibitors, Endocrine Therapy and Anti-HER2 Therapy” (Olaris, inc., priority 2018, published 2023).
Where “and” joins values, the source holds several entries; their conditions need not be identical. Equal entries are not always repeated.

Assays:
CYP2A6 = molecular target: T1, CYP2A6 (Homo sapiens, UniProt P11509); conditions: off-target effect; cited from earlier work
T1 sequence (P11509 1-494): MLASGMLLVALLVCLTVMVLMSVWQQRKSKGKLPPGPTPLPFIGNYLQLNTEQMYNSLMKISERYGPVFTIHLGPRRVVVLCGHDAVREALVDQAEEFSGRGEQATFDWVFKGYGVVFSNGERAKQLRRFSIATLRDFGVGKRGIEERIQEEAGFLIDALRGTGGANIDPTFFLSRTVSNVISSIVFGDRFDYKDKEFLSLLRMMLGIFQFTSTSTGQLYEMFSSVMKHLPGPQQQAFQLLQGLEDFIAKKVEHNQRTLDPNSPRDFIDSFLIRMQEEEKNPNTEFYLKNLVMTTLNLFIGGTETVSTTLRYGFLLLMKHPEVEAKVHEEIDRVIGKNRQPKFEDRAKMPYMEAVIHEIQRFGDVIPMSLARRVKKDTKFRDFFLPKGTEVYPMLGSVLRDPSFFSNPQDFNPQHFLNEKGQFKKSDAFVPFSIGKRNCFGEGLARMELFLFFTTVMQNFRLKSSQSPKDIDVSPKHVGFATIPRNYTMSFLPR

CYP2C19 = CYP2C19 (Homo sapiens, UniProt P33261); conditions: off-target effect; cited from earlier work
ER+/HER2− metastatic BC = test: Retrospective study: tumor response and survival of metastatic BC patients treated with CDK4/6 inhibitors; assay type: in vivo, human; conditions: palbociclib N=10, ribociclib N=14; for Non-responders (NR): at least 20% increase in sum of diameters of target tumors after 6 months; for Responders (R): at least 30% decrease in sum of diameters of target tumors after 6 months
Excerpt: Here we describe a retrospective study analyzing plasma-based metabolites from a baseline (BL) sample and after 2-months (2M) of treatment of 24 women with ER+/HER2− metastatic BC treated with CDK4/6 inhibitors, palbociclib or ribociclib.

[1] = tested on: adenoid cystic carcinomas of the salivary gland; conditions: despite increased expression of c-kit; cited from earlier work

Chain of CYP2C19 (P33261 whole entry): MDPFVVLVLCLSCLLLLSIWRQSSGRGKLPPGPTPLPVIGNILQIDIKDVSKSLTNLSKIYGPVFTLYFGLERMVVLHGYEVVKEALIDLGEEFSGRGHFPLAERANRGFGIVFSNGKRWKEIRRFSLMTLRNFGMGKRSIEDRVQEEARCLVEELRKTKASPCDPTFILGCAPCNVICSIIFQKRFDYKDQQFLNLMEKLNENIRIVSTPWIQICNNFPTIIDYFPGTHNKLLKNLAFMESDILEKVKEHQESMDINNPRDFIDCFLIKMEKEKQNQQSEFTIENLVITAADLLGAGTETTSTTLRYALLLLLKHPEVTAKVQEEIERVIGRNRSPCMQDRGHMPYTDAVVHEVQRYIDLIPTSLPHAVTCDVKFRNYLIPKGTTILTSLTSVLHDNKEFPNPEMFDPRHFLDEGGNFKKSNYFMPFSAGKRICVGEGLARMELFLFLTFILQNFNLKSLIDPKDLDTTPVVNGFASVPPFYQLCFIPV

Compound: N#Cc1ccc(C(c2ccc(C#N)cc2)n2cncn2)cc1 [letrozole]
- inhibition of CYP2A6 (CYP2A6): inhibits
- inhibition of CYP2C19 (CYP2C19): inhibits

Compound: CC(=O)c1c(C)c2cnc(Nc3ccc(N4CCNCC4)cn3)nc2n(C2CCCC2)c1=O [palbociclib]
- Non-responders (NR) (ER+/HER2− metastatic BC): 3 patients
- Responders (R) (ER+/HER2− metastatic BC): 7

Compound: CN(C)C(=O)c1cc2cnc(Nc3ccc(N4CCNCC4)cn3)nc2n1C1CCCC1 [ribociclib]
- Non-responders (NR) (ER+/HER2− metastatic BC): 7 patients and 6 patients
- Responders (R) (ER+/HER2− metastatic BC): 8

Compound: Cc1ccc(NC(=O)c2ccc(CN3CCN(C)CC3)cc2)cc1Nc1nccc(-c2cccnc2)n1 [imatinib]
- effect on adenoid cystic carcinomas of the salivary gland [1]: no effect
